Measurements published in publication PMC11748363, “Antimicrobial and Antiproliferative Properties of 2‐Phenyl‐N‐(Pyridin‐2‐yl)acetamides” (Chemical Biology & Drug Design, 2025).
Converted amounts (≈) assume the structure as drawn. Where two headings read alike, the source gives them in different places.

Legend:
HepG2 cell line = experiment: Cytotoxicity CellTiter 96, HepG2; assay type: cell-based, human; conditions: Homo sapiens, HepG2, 24 h, 24 h incubation; ^c compound precipitated in the testing medium; ^d over the limit of tested concentrations
Protocol: The cytotoxicity of final compounds was determined in human hepatocellular carcinoma cell line HepG2.
Cytotoxicity determination
Human hepatocellular liver carcinoma cell line HepG2 purchased from Health Protection Agency Culture Collections (ECACC, Salisbury, UK) was cultured in MEM (Minimum Essentials Eagle Medium, Sigma–Aldrich) supplemented with 10% fetal bovine serum (PAA Laboratories, Pasching, Austria), 1% L-glutamine solution (Sigma–Aldrich) and non-essential amino acid solution (Sigma–Aldrich) in a humidified atmosphere containing 5% CO2 at 37 °C. For subculturing, the cells were harvested after trypsin/EDTA (Sigma–Aldrich) treatment at 37 °C. To evaluate cytotoxicity, the cells treated with the tested substances were used as experimental groups whereas untreated HepG2 cells served as controls. The cells were seeded in density 10,000 cells per well in a 96 well plate. The next day the cells were treated with each of the tested substances dissolved in DMSO. The tested substances were
in triplicates according to their solubility. Simultaneously, the controls representing 100% cell viability, 0% cell viability (the cells treated with 10% DMSO), no cell control and vehiculum controls were also
the reagent from the kit CellTiter 96 AQueous One Solution Cell Proliferation Assay (CellTiter 96; PROMEGA, Fitchburg, USA) was added. After 2h incubation at 37 °C, absorbance of samples was recorded at 490 nm (TECAN, Infinita M200, Austria). A standard toxicological parameter IC50 was calculated by nonlinear regression from a semilogarithmic plot of incubation concentration versus percentage of absorbance relative to untre ated controls using GraphPad Prism 8 software.

[1] = tested on: Lichtheimia corymbifera CCM 8077; experiment: Antifungal microdilution broth MIC, LC
[2] = tested on: Aspergillus fumigatus ATCC 204305; experiment: Antifungal microdilution broth MIC, AF
[3] = tested on: Staphylococcus aureus subsp. aureus CCM 4750, ATCC 43300 (MRSA); experiment: Antibacterial microdilution broth MIC, MRSA; assay type: cell-based; conditions: Staphylococcus aureus
[4] = tested on: Enterococcus faecalis CCM 4224, ATCC 29212; experiment: Antibacterial microdilution broth MIC, EF; assay type: cell-based
[5] = tested on: Pseudomonas aeruginosa CCM 3955, ATCC 27853; experiment: Antibacterial microdilution broth MIC, PA; assay type: cell-based
[6] = tested on: Mycobacterium tuberculosis H37Ra; experiment: Antimycobacterial microdilution broth MIC (resazurin), Mtb H37Ra; assay type: cell-based; conditions: for MIC: Mycobacterium tuberculosis, H37RA, read-out: MIC Mtb H37Ra; for SI (selectivity index): SI = HepG2 IC50 (μM)/MIC MtbH37Ra (μM), calculated for compounds with MIC ≤ 31.25 μg/mL
[7] = tested on: Escherichia coli CCM 3954, ATCC 25922; experiment: Antibacterial microdilution broth MIC, EC; assay type: cell-based
[8] = tested on: Candida krusei CCM 8271, ATCC 6258; experiment: Antifungal microdilution broth MIC, CK; conditions: Pichia kudriavzevii
[9] = tested on: Klebsiella pneumoniae CCM 4415, ATCC 10031; experiment: Antibacterial microdilution broth MIC, KP
[10] = tested on: Candida parapsilosis CCM 8260, ATCC 22019; experiment: Antifungal microdilution broth MIC, CP; conditions: Lodderomyces parapsilosis
[11] = tested on: Staphylococcus aureus CCM 4223, ATCC 29213; experiment: Antibacterial microdilution broth MIC, SA; assay type: cell-based; conditions: Staphylococcus aureus
[12] = tested on: Acinetobacter baumannii DSM 30007, ATCC 19606; experiment: Antibacterial microdilution broth MIC, ACI; assay type: cell-based
[13] = tested on: Staphylococcus epidermidis CCM 4418, ATCC 12228; experiment: Antibacterial microdilution broth MIC, SE; assay type: cell-based
[14] = tested on: Trichophyton interdigitale CCM 8377, ATCC 9533; experiment: Antifungal microdilution broth MIC, TI; conditions: Trichophyton interdigitale
[15] = tested on: Mycolicibacterium aurum DSM 43999; experiment: Antimycobacterial microdilution broth MIC (resazurin), M. aurum; assay type: cell-based; conditions: DSM43999, read-out: MIC M. aurum
[16] = tested on: Mycolicibacterium smegmatis DSM 43465; experiment: Antimycobacterial microdilution broth MIC (resazurin), M. smegmatis; assay type: cell-based; conditions: DSM43465, read-out: MIC M. smegmatis
[17] = tested on: Candida tropicalis CCM 8264, ATCC 750; experiment: Antifungal microdilution broth MIC, CT
[18] = tested on: Candida albicans CCM 8320, ATCC 24433; experiment: Antifungal microdilution broth MIC, CA
[19] = tested on: Aspergillus flavus CCM 8363; experiment: Antifungal microdilution broth MIC, AFla
[20] = CCM8077, 24 h, read-out: MIC LC 24h
[21] = CCM8077, 48 h, read-out: MIC LC 48h
[22] = ATCC204305, 24 h, read-out: MIC AF 24h
[23] = ATCC204305, 48 h, read-out: MIC AF 48h
[24] = CCM8363, 24 h, read-out: MIC AFla 24h
[25] = CCM8363, 48 h, read-out: MIC AFla 48h

Compound	IC50 (HepG2 cell line)	MIC [1, 20]	MIC [1, 21]	MIC [2, 22]	MIC [2, 23]	MIC ([3]; 24 h, read-out: MIC MRSA 24h)	MIC ([3]; 48 h, read-out: MIC MRSA 48h)	MIC ([4]; 24 h, read-out: MIC EF 24h)	MIC ([4]; 48 h, read-out: MIC EF 48h)	MIC ([5]; 24 h, read-out: MIC PA 24h)	MIC ([5]; 48 h, read-out: MIC PA 48h)	MIC ([6]; Calculated from MIC (μg/mL))	MIC [6]	MIC ([7]; 24 h, read-out: MIC EC 24h)	MIC ([7]; 48 h, read-out: MIC EC 48h)	MIC ([8]; 24 h, read-out: MIC CK 24h)	MIC ([8]; 48 h, read-out: MIC CK 48h)	MIC KP 24h [9]	MIC KP 48h [9]	MIC ([10]; 24 h, read-out: MIC CP 24h)	other results
O=C(Cc1cccc(C(F)(F)F)c1)Nc1ccccn1 [Compound 25]	724 µM	> 500 µM	> 500 µM	> 500 µM	> 500 µM	> 500 µM	> 500 µM	> 500 µM	> 500 µM	> 500 µM	> 500 µM	223 µM	62.5 mg/L	> 500 µM	> 500 µM	> 500 µM	> 500 µM	> 500 µM	> 500 µM	> 500 µM	MIC ([10]; 48 h, read-out: MIC CP 48h): > 500 µM; MIC ([11]; 24 h, read-out: MIC SA 24h): > 500 µM; MIC ([11]; 48 h, read-out: MIC SA 48h): > 500 µM; MIC ([12]; 24 h, read-out: MIC ACI 24h): > 500 µM; MIC ([12]; 48 h, read-out: MIC ACI 48h): > 500 µM; MIC ([13]; 24 h, read-out: MIC SE 24h): > 500 µM; MIC ([13]; 48 h, read-out: MIC SE 48h): > 500 µM; MIC ([14]; 72 h, read-out: MIC TI 72h): 500 µM (≈ 140 µg/mL); MIC ([14]; 120 h, read-out: MIC TI 120h): 500 µM (≈ 140 µg/mL); MIC [15]: 125 mg/L (≈ 446 µM); MIC [16]: > 500 mg/L; MIC ([17]; 24 h, read-out: MIC CT 24h): > 500 µM; MIC ([17]; 48 h, read-out: MIC CT 48h): > 500 µM; MIC ([18]; 24 h, read-out: MIC CA 24h): > 500 µM; MIC ([18]; 48 h, read-out: MIC CA 48h): > 500 µM; MIC [19, 24]: > 500 µM; MIC [19, 25]: > 500 µM
O=C(Cc1cccc(C(F)(F)F)c1)Nc1cccc(Cl)n1 [Compound 27]	146 µM	> 500 µM	> 500 µM	> 500 µM	> 500 µM	> 500 µM	> 500 µM	> 500 µM	> 500 µM	> 500 µM	> 500 µM	99.3 µM	31.2 mg/L	> 500 µM	> 500 µM	> 500 µM	> 500 µM	> 500 µM	> 500 µM	> 500 µM	SI (selectivity index) [6]: 1.5; MIC ([10]; 48 h, read-out: MIC CP 48h): > 500 µM; MIC ([11]; 24 h, read-out: MIC SA 24h): > 500 µM; MIC ([11]; 48 h, read-out: MIC SA 48h): > 500 µM; MIC ([12]; 24 h, read-out: MIC ACI 24h): > 500 µM; MIC ([12]; 48 h, read-out: MIC ACI 48h): > 500 µM; MIC ([13]; 24 h, read-out: MIC SE 24h): 250 µM (≈ 78.7 µg/mL); MIC ([13]; 48 h, read-out: MIC SE 48h): 250 µM (≈ 78.7 µg/mL); MIC ([14]; 72 h, read-out: MIC TI 72h): > 500 µM; MIC ([14]; 120 h, read-out: MIC TI 120h): > 500 µM; MIC [15]: 15.6 mg/L (≈ 49.7 µM); MIC [16]: > 500 mg/L; MIC ([17]; 24 h, read-out: MIC CT 24h): > 500 µM; MIC ([17]; 48 h, read-out: MIC CT 48h): > 500 µM; MIC ([18]; 24 h, read-out: MIC CA 24h): > 500 µM; MIC ([18]; 48 h, read-out: MIC CA 48h): > 500 µM; MIC [19, 24]: > 500 µM; MIC [19, 25]: > 500 µM
O=C(Cc1ccc(C(F)(F)F)cc1)Nc1ccccn1 [Compound 28]	408 µM	> 500 µM	> 500 µM	> 500 µM	> 500 µM	> 500 µM	> 500 µM	> 500 µM	> 500 µM	> 500 µM	> 500 µM	112 µM	31.2 mg/L	> 500 µM	> 500 µM	> 500 µM	> 500 µM	> 500 µM	> 500 µM	> 500 µM	SI (selectivity index) [6]: 3.7; MIC ([10]; 48 h, read-out: MIC CP 48h): > 500 µM; MIC ([11]; 24 h, read-out: MIC SA 24h): > 500 µM; MIC ([11]; 48 h, read-out: MIC SA 48h): > 500 µM; MIC ([12]; 24 h, read-out: MIC ACI 24h): > 500 µM; MIC ([12]; 48 h, read-out: MIC ACI 48h): > 500 µM; MIC ([13]; 24 h, read-out: MIC SE 24h): > 500 µM; MIC ([13]; 48 h, read-out: MIC SE 48h): > 500 µM; MIC ([14]; 72 h, read-out: MIC TI 72h): > 500 µM; MIC ([14]; 120 h, read-out: MIC TI 120h): > 500 µM; MIC [15]: > 500 mg/L; MIC [16]: > 500 mg/L; MIC ([17]; 24 h, read-out: MIC CT 24h): > 500 µM; MIC ([17]; 48 h, read-out: MIC CT 48h): > 500 µM; MIC ([18]; 24 h, read-out: MIC CA 24h): > 500 µM; MIC ([18]; 48 h, read-out: MIC CA 48h): > 500 µM; MIC [19, 24]: > 500 µM; MIC [19, 25]: > 500 µM
